How the values were obtained:
Format in all cases: functional
Hs-578T = assay: Growth inhibition of human Hs 578T cells assessed as cell growth at 10^-4 M incubated for 48 hrs by sulforhodamine B assay relative to control; conditions: read-out: Activity
RPMI-8226 = assay: Growth inhibition of human RPMI8226 cells assessed as cell growth at 10^-4 M incubated for 48 hrs by sulforhodamine B assay relative to control; conditions: RPMI-8226, 48 h, read-out: Activity
COLO 205 = assay: Growth inhibition of human COLO205 cells assessed as cell growth at 10^-5 M incubated for 48 hrs by sulforhodamine B assay relative to control; conditions: COLO 205, 48 h, read-out: Activity
NCI-H522 = assay: Growth inhibition of human NCI-H522 cells assessed as cell growth at 10^-4 M incubated for 48 hrs by sulforhodamine B assay relative to control; conditions: NCI-H522, 48 h, read-out: Activity
M14 = assay: Growth inhibition of human M14 cells assessed as cell growth at 10^-4 M incubated for 48 hrs by sulforhodamine B assay relative to control; conditions: M14, 48 h, read-out: Activity

Structure (SMILES) | growth at 100 µM (Hs-578T) | growth at 100 µM (RPMI-8226) | growth at 10 µM (COLO 205) | growth at 100 µM (NCI-H522) | growth at 100 µM (M14)
CCS/C(Nc1ccccc1)=C(\C#N)C(=O)Nc1ccc(OC)cc1 | 16% | 5% | 1% | -11% | –
CCS/C(Nc1ccccc1)=C(\C#N)C(=O)N/N=C\c1ccc(Cl)cc1Cl | – | 6% | – | – | -3%

Reference: ChEMBL document CHEMBL4145553, “Design, synthesis, and biological evaluation of novel amide and hydrazide based thioether analogs targeting Histone deacteylase (HDAC) enzymes” (Eur J Med Chem, 2018)
